Experimental data from patent US4798807A, “Monoclonal antibodies and method for detecting dioxins and dibenzofurans” (priority 1986, dated 1989).
Entries after “also recorded” stand apart in the source; their conditions may differ.

Tests used:
monoclonal antibody DD-5 = assay: Competition ELISA with monoclonal antibody DD-5; format: binding, Biozzi mice; details: competitor vs monoclonal antibody DD-5; plate coated with A-triCDD-RSA
Procedure: (§1) In this case the hybridomas were then screened for their ability to distinguish A-triCDD-BSA and A-triCDD-RSA from BSA and RSA. On the basis of this initial screen about 25 stable, antibody-producing colonies were isolated, subcloned, and frozen. The remaining clones were again screened for their abilities to recognize free TCDD in suspension. Experimentally, on the order of 10-100 nanograms of TCDD in hexane was dried, 0.5 ml of saline with BSA (1 mg/ml) was added and sonificated for 2 hrs. […] Identical procedures were followed for other dioxin isomers. A dilution series in microtiter plate wells was then made with the suspended TCDD, antibody adde, and the competition ELISA completed. Competition ELISA test procedures are discussed in detail in the following reference: Butt, W. R. (1984) "Practical Immunoassay: The State of the Art", Marcel Dekker, Inc., N.Y., N.Y.
(§2) A large part of the success that we have had in characterizing the binding specificities of our monoclonal antibodies comes from having developed a reliable competition ELISA protocol. Our preferred assay starts from stock solutions at 10 ppm in hexane of the various compounds listed in Table I. 10 μl of hexane solution is aliquoted into a small vial, evaporated under a stream of nitrogen gas, and 500 μl of a 1 mg/ml solution of BSA in phosphate buffered saline with 0.1% BSA is added. The vial is capped and placed in an ultrasonic cleaning waterbath for two hours. Two hours of sonification gives a more reproducible assay than does an hour. During the sonification, the hexane appears to evaporate completely, and one is left with an aqueous solution containing the dioxin. Microtiter plates coated with A-triCDD-RSA are blocked with a three percent solution of ovalbumin and a two-fold dilution series of sonificated dioxin-BSA is then made, covering the range 100 ppb-0.1 ppb. In each well of the plate 100 μl of the sonificated dioxin-BSA solution is mixed with n equal volume of antibody. The antibody partitions between the dioxin adsorbed to the BSA, and the A-tri-CDD-RSA on the plate.
(§3) A-TriCDD-RSA was adsorbed onto the surface of the wells of a microtiter plate. The various competitors listed were suspended in saline containing bovine serum albumin (BSA). These solutions were made by sonificating 10 μl of dioxin solution in hexane with 500 μl of saline-BSA. A dilution series of these dioxin-BSA solutions was then made covering the range of 100-0.2 ppb, and placed in the microtiter plate wells. An equal volume of DD-1 monoclonal antibody was then added, and allowed to react for 1 hour. Tne antibody binds either to the A-TriCDD-RSA on the plate or the dioxin in solution. After the hour, the solution phase is removed, the plate washed, and it is reincubated for an hour with peroxidase-conjugated goat-anti-mouse-immunoglobulins. A second washing is then done, and substrate (ABTS) added to the peroxidase. The enzyme-antibody conjugate and substrate function as a "developer", allowing the visualization of the DD-1 bound to the A-triCDD-RSA on the plate. Results are then expressed as a fraction of the response in wells with no competitor. […] At about 20 ppb of 2,3,7,8-TCDD the relative ELISA response is half of control, meaning that half the DD-1 antibody bound to the solution phase dioxin and half bound to the A-triCDD-RSA on the plate. For 1,2,3,7(8)-TCDD, 50% inhibition occurs at about 4 ppb, indicating the DD-1 prefers 1,2,3,7(8)-TCDD to 2,3,7,8-TCDD.
(§4) The FIGURE and Table II show representative competition data using several chlorinated compounds as competitors. From such data, one can determine the concentration required to inhibit antibody binding by 50% (I50). Table II lists the I50 for all compounds tested with the antibodies. In reporting these values, factors of two are about the limit of significance. […] The binding specificities of these antibodies are highly desirable, since they prefer the most toxic of the dioxin and dibenzofuran isomers.

monoclonal antibody DD-6 = assay: Competition ELISA with monoclonal antibody DD-6; format: binding, Biozzi mice; details: competitor vs monoclonal antibody DD-6; plate coated with A-triCDD-RSA
Procedure: as §1, §2, §3, §4

[1] = test system: monoclonal antibodies DD-1, DD-3, DD-4, DD-5 and DD-6; assay: Competition ELISA, statements for all antibodies together; format: binding, BALB/c and Biozzi mice; details: for reactivity of all antibodies with competitor: up to the highest concentration tested (100 ppb)
Procedure: as §1, §2, §3, §4

monoclonal antibody DD-4 = assay: Competition ELISA with monoclonal antibody DD-4; format: binding, BALB/c mice; details: for I50 (inhibits antibody binding by 50%): competitor vs monoclonal antibody DD-4, plate coated with A-triCDD-RSA
Procedure: as §1, §2, §3, §4

monoclonal antibody DD-1 = assay: Competition ELISA with monoclonal antibody DD-1; format: binding, Biozzi mice; details: for concentration at which 50% inhibition occurs (relative ELISA response half of control): competitor in saline-BSA, dilution series 100-0.2 ppb; for I50 (inhibits antibody binding by 50%): competitor vs monoclonal antibody DD-1, plate coated with A-triCDD-RSA
Procedure: as §1, §2, §3, §4

monoclonal antibody DD-3 = assay: Competition ELISA with monoclonal antibody DD-3; format: binding, BALB/c mice; details: competitor vs monoclonal antibody DD-3; plate coated with A-triCDD-RSA
Procedure: as §1, §2, §3, §4

Molecule | I50 (inhibits antibody binding by 50%) (monoclonal antibody DD-5) | I50 (inhibits antibody binding by 50%) (monoclonal antibody DD-6) | affinity / recognition by all antibodies [1] | I50 (inhibits antibody binding by 50%) (monoclonal antibody DD-4) | concentration at which 50% inhibition occurs (relative ELISA response half of control) (monoclonal antibody DD-1; FIGURE, DD-1) | I50 (inhibits antibody binding by 50%) (monoclonal antibody DD-1) | I50 (inhibits antibody binding by 50%) (monoclonal antibody DD-3) | reactivity of all antibodies with competitor [1] | reactivity of DD-4 with competitor (monoclonal antibody DD-4; DD-4) | reaction of DD-1 with competitor (monoclonal antibody DD-1; FIGURE, DD-1, 100-0.2 ppb)
Clc1cc2c(cc1Cl)Oc1cc(Cl)c(Cl)cc1O2 [2,3,7,8-TCDD, 2,3,7,8-tetrachlorodibenzo-p-dioxin] | 0.5 ng | 6 ng | slightly less affinity; also recorded: recognize | 5 ng | about 20 ppb | 1 ng | 3 ng | – | – | –
Clc1ccc2oc3c(Cl)c(Cl)c(Cl)c(Cl)c3c2c1Cl [1,2,3,4,8,9-Hexa-CDBF] | > 10 ng | > 150 ng | – | > 200 ng | – | > 200 ng | > 200 ng | either do not react or react only marginally | – | –
Clc1cc2oc3cc(Cl)c(Cl)cc3c2cc1Cl [2,3,7,8-TCDBF] | 1 ng | 0.5 ng | slightly less affinity | 5 ng | – | 0.65 ng | 0.9 ng | – | – | –
OCC(Cl)(Cl)Cl [2,2,2-Tricholoroethanol, 2,2,2-Tricholoro-ethanol] | > 2000 ng | > 2000 ng | – | > 2000 ng | – | > 2000 ng | > 2000 ng | – | – | –
O=C1C2(Cl)C3(Cl)C4(Cl)C(Cl)(Cl)C5(Cl)C3(Cl)C1(Cl)C5(Cl)C24Cl (stereo not drawn) [Kepon] | > 2000 ng | > 2000 ng | – | > 2000 ng | – | > 2000 ng | > 2000 ng | – | – | –
Clc1c(Cl)c(Cl)c2c(oc3c(Cl)c(Cl)c(Cl)c(Cl)c32)c1Cl [Octachloro-DBF] | > 10 ng | > 200 ng | – | > 200 ng | – | > 200 ng | > 200 ng | either do not react or react only marginally | – | –
Clc1cc(Cl)c2c(c1)Oc1cc(Cl)c(Cl)cc1O2 [1,3,7,8-TCDD] | – | 1 ng | highest affinity | > 2 ng | – | 0.2 ng | 0.15 ng | – | – | –
ClC1C(Cl)C(Cl)C(Cl)C(Cl)C1Cl (stereo not drawn) [BHC] | > 2000 ng | > 2000 ng | – | > 2000 ng | – | 300 ng | > 2000 ng | – | – | –
ClC1=C(Cl)C2(Cl)C3C4C=CC(C4)C3C1(Cl)C2(Cl)Cl (stereo not drawn) [Aldrin] | > 2000 ng | > 2000 ng | – | > 2000 ng | – | > 2000 ng | > 2000 ng | – | – | –
1,2,3,6(7),7(8),8(9)-hexa-CD[ | > 10 ng | > 200 ng | – | > 200 ng | – | > 200 ng | > 200 ng | – | some reactivity | –
Clc1ccccc1 [Chlorobenzene] | > 2000 ng | > 2000 ng | – | > 2000 ng | – | > 2000 ng | > 2000 ng | – | – | –
1,2,3,7,(8)-TCDD | 0.3 ng | 0.15 ng | – | 0.3 ng | about 4 ppb | 0.15 ng | 0.45 ng | – | – | –
Clc1ccccc1-c1cc(Cl)c(Cl)c(Cl)c1Cl [2,2',3,4,5-Penta-CBP] | > 10 ng | > 200 ng | – | > 200 ng | – | > 200 ng | > 200 ng | – | – | –
Clc1ccc(-c2c(Cl)cc(Cl)c(Cl)c2Cl)c(Cl)c1Cl [2,2',3,3',4,4',6-Hepta-CBP] | > 10 ng | > 200 ng | – | > 200 ng | – | > 200 ng | > 200 ng | – | – | –
Clc1cc(Cl)c2c(c1Cl)Oc1ccccc1O2 [1,2,4-Tri-CDD] | > 10 ng | > 200 ng | – | > 200 ng | – | > 200 ng | > 200 ng | – | – | –
Clc1ccc(C(c2ccc(Cl)cc2)C(Cl)(Cl)Cl)cc1 [DDT] | > 2000 ng | > 2000 ng | – | > 2000 ng | – | > 2000 ng | > 2000 ng | – | – | –
Oc1ccc(Cl)cc1Cl [2,4-Dichlorophenol] | > 2000 ng | > 2000 ng | – | > 2000 ng | – | 2000 ng | > 2000 ng | – | – | –
Clc1c(Cl)c(Cl)c2c(c1Cl)Oc1c(Cl)c(Cl)c(Cl)c(Cl)c1O2 [Octachloro-DD, octachlorodibenzodioxin] | > 10 ng | > 200 ng | – | > 200 ng | – | > 200 ng | > 200 ng | either do not react or react only marginally | – | does not react
